Assays:
[1] = in vivo
Procedure: (§1) Thus, 14 ml of the obtained concentrate solution containing the ergothioneine were mixed in 120 g of the feed for hen used generally, it were mixed with the mixing stirrer 4, and the feed for the laying hen 41 was obtained. The feed for the laying hen 41 of 120 g per a hen was continuously fed to the laying hen for 36 days, dividing into four times a day.
The feeding and raising to the laying hen, and the measurement of the ergothioneine content in the egg yolk of the egg extracted in the meantime are performed in the same way as the example 2. In a fixed amount of the ergothioneine in the measurement of the ergothioneine content in the egg yolk of each egg here, the chromatogram of an internal standard substance and the ergothioneine are obtained from the egg yolk which preliminarily added the internal standard substance of the known amount by a high performance chromatography, the amount of the ergothioneine is measured from the ratio of the peak area of the ergothioneine to that of the internal standard substance.
In FIG. 4, one egg (a total of ten eggs) which each of the ten hens will lay on the 1 day is extracted for every lapsed days which start of the feed of the general feed for the hen, start of the feed of the laying hen, start of the feed of the general feed for the hen to stop of the feed of the laying hen and continue on the 71th day. The ergothioneine content in each egg yolk is measured, and the average value of the ergothioneine content in the egg yolk of these ten eggs is denoted by a graph.

[2] = in vivo; remark: listed apart in the source
Procedure: as §1
The feeding and raising to the laying hen, and the measure of the ergothioneine content in the egg white of the egg extracted in the meantime are performed in the following ways. Numbering was carried out to ten hens, respectively, and it stored one hen in the raising gauge, and one egg (a total of ten eggs) which each hen will lay on the 1 day was extracted, numbering was carried out to each egg, and the ergothioneine content in the egg white of each egg was measured. In a fixed amount of the ergothioneine, the chromatogram of an internal standard substance and the ergothioneine are obtained from the egg white which preliminarily added the internal standard substance of the known amount by a high performance chromatography, the amount of the ergothioneine is measured from the ratio of the peak area of the ergothioneine to that of the internal standard substance.
In the measurement of the ergothioneine content in the egg white, the feed for the hen used generally (the general feed for the hen) was fed for 5 days (minus fifth day to minus first day), the feed of the laying hen which mixed the concentrate solution containing the ergothioneine continuously was fed for 36 days (0 day to 36th day), the feed of the laying hen was stopped after that, the general feed for the hen was started, and it carried out till 71th day. […] The ergothioneine content in each egg white is measured, and the average value of the ergothioneine content in the egg white of these ten eggs is denoted by a graph.

SMILES: C[N+](C)(C)[C@@H](Cc1c[nH]c(=S)[nH]1)C(=O)[O-] [ergothioneine]
- day on which ergothioneine content in the egg yolk returned to the initial value [1]: 58 days
- increase of ergothioneine content in the egg yolk over initial value [1]: about 8.5 times
- start of concentration of ergothioneine to the egg yolk [1]: second day
- day on which ergothioneine content in the egg white returned to the initial value [2]: 71 days
- increase of ergothioneine content in the egg white over initial value [2]: about 12.8 times
- start of concentration of ergothioneine to the egg white [2]: first day
